Tests used:
Experiment in all cases: protein binders identified by SILAC affinity pulldown, late-stage follow-up, mechanism study for beta-cell protection project, cell lysate, INS-1E, SILAC competition, mass spectrometry (AID 652090)
Retsat [1] = target: Retsat (UniProt Q8VHE9); details: INS-1E SILAC affinity pulldown, competition MS ratio, stronger effect = higher value
Cand2 [2] = details: INS-1E SILAC affinity pulldown, competition MS ratio, enrichment significance, stronger effect = lower value
Timm44 [3] = target: Timm44 (UniProt O35094); details: INS-1E SILAC affinity pulldown, competition MS ratio, stronger effect = higher value
Timm44 (UniProt O35094), sequence (O35094 whole entry, looked up): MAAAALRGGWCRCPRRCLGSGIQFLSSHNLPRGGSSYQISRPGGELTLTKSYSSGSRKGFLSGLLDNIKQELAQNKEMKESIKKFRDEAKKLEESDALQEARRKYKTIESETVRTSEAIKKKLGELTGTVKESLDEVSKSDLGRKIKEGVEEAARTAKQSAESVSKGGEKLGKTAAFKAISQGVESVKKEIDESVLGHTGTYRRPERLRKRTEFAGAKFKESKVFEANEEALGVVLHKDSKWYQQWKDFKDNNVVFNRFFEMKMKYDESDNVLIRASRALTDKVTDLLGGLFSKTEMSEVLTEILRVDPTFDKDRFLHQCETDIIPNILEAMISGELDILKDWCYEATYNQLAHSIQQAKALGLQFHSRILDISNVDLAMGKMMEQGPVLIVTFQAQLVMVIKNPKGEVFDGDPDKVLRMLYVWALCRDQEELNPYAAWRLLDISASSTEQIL

Cand2 [4] = target: Cand2 (UniProt Q9R0L4); details: INS-1E SILAC affinity pulldown, competition MS ratio, stronger effect = higher value
Cand2 (UniProt Q9R0L4), sequence (Q9R0L4 whole entry, looked up): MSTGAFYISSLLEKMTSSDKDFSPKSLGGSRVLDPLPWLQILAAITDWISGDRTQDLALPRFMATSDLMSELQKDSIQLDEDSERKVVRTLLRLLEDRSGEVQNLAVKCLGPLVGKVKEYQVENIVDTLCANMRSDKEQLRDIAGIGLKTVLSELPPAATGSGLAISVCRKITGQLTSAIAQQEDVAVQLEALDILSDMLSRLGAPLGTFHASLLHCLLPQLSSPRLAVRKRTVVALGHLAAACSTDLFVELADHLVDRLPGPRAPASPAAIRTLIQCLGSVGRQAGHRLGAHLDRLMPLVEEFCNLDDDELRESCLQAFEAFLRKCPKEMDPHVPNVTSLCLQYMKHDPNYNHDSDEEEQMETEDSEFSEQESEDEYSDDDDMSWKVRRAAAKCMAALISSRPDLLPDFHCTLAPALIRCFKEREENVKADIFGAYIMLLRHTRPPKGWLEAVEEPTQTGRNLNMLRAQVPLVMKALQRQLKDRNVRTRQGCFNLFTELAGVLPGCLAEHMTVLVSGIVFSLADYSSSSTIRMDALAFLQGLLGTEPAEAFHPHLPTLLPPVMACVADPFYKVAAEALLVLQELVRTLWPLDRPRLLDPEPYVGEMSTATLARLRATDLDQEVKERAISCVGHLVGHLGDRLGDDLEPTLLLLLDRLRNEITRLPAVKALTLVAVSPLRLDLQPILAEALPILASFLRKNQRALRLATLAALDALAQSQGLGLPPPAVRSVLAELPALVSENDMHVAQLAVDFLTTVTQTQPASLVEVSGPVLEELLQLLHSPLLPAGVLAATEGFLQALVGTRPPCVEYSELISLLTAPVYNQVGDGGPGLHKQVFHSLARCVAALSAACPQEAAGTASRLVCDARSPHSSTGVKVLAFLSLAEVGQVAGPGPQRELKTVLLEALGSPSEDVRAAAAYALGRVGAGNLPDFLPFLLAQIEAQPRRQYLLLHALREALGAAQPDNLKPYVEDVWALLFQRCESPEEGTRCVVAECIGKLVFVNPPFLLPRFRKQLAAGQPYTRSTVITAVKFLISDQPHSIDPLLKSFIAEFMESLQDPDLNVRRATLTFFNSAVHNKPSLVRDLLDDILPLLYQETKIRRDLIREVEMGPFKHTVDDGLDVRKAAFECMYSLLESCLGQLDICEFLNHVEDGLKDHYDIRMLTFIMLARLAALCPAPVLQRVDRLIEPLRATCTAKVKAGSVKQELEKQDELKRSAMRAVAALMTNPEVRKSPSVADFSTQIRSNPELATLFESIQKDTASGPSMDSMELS

Retsat [5] = details: INS-1E SILAC affinity pulldown, competition MS ratio, enrichment significance, stronger effect = lower value
Lrpprc [6] = details: INS-1E SILAC affinity pulldown, competition MS ratio, enrichment significance, stronger effect = lower value
Ahcy = details: INS-1E SILAC affinity pulldown, competition MS ratio, enrichment significance, stronger effect = lower value
Usp9x = details: INS-1E SILAC affinity pulldown, competition MS ratio
Blvrb = details: INS-1E SILAC affinity pulldown, competition MS ratio
RGD1309903 = details: INS-1E SILAC affinity pulldown, competition MS ratio
Xpo1 [7] = details: INS-1E SILAC affinity pulldown, competition MS ratio, enrichment significance, stronger effect = lower value
Ap3b2 = details: INS-1E SILAC affinity pulldown, competition MS ratio
Tbc1d15 = details: INS-1E SILAC affinity pulldown, competition MS ratio
Lrpprc [8] = target: Lrpprc (UniProt Q5SGE0); details: INS-1E SILAC affinity pulldown, competition MS ratio, stronger effect = higher value
Ipo4 = details: INS-1E SILAC affinity pulldown, competition MS ratio
Gapdh = details: INS-1E SILAC affinity pulldown, competition MS ratio, enrichment significance, stronger effect = lower value
Xpo1 [9] = target: Xpo1 (UniProt Q80U96); details: INS-1E SILAC affinity pulldown, competition MS ratio, stronger effect = higher value
Xpo1 (UniProt Q80U96), sequence (Q80U96 whole entry, looked up): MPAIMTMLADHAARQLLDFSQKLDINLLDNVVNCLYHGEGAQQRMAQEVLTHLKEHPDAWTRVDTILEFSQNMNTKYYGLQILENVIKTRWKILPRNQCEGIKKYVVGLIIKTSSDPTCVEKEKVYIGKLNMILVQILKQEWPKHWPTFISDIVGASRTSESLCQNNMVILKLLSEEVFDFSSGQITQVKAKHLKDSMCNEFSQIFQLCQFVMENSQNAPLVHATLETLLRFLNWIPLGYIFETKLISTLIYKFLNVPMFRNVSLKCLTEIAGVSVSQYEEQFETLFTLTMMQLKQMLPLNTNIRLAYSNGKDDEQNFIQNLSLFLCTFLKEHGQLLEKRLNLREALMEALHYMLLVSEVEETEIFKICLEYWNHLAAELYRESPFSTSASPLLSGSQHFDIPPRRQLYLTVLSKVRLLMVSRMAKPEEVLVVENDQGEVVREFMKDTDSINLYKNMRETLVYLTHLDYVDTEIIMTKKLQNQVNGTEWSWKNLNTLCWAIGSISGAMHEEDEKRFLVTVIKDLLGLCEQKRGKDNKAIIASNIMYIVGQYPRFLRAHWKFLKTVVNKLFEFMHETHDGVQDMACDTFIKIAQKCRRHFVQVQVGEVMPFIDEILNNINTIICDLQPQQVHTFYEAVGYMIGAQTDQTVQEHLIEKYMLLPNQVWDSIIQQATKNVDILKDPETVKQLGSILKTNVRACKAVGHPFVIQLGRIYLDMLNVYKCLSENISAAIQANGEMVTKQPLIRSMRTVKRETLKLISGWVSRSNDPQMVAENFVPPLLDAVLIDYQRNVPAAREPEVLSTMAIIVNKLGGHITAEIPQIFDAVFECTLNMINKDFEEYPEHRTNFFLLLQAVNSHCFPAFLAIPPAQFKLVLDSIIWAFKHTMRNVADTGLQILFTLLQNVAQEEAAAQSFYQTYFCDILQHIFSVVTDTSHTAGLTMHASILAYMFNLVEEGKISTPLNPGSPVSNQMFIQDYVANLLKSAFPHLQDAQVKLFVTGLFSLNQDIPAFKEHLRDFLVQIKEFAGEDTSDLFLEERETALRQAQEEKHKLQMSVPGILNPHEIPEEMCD

Timm44 [10] = details: INS-1E SILAC affinity pulldown, competition MS ratio, enrichment significance, stronger effect = lower value
[11] = target: Glyceraldehyde-3-phosphate dehydrogenase (Rattus norvegicus) (UniProt P04797); details: INS-1E SILAC affinity pulldown, competition MS ratio; Gapdh; stronger effect = higher value
Glyceraldehyde-3-phosphate dehydrogenase (Rattus norvegicus), sequence (P04797 whole entry, looked up): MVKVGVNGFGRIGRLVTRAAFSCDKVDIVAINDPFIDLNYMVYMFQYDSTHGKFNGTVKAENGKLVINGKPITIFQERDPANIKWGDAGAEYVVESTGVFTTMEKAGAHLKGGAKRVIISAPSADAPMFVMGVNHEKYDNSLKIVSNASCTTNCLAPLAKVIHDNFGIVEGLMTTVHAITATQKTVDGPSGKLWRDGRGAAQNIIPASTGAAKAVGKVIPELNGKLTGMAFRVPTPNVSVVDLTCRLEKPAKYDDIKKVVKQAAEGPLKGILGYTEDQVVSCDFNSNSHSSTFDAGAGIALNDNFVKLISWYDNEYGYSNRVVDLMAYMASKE

Mcm6 [12] = target: Mcm6 (UniProt Q62724); details: INS-1E SILAC affinity pulldown, competition MS ratio, stronger effect = higher value
Mcm6 (UniProt Q62724), sequence (Q62724 whole entry, looked up): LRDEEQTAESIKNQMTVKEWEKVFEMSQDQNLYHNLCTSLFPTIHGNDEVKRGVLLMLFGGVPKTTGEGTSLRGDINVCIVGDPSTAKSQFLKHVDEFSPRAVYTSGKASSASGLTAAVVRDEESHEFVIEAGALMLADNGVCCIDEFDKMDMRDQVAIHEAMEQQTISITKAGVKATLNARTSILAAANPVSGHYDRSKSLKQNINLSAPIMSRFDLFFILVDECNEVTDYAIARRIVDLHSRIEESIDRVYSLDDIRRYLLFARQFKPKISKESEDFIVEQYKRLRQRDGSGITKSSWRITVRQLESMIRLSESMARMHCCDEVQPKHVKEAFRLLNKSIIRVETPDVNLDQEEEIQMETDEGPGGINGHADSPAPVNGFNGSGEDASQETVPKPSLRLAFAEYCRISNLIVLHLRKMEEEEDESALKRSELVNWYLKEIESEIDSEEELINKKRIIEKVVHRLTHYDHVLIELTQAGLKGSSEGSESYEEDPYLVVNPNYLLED

Cand1 = details: INS-1E SILAC affinity pulldown, competition MS ratio
Ipo9 = details: INS-1E SILAC affinity pulldown, competition MS ratio
LOC303448 = details: INS-1E SILAC affinity pulldown, competition MS ratio
Mcm6 [13] = details: INS-1E SILAC affinity pulldown, competition MS ratio, enrichment significance, stronger effect = lower value
[14] = target: Adenosylhomocysteinase (Rattus norvegicus) (UniProt P10760); details: INS-1E SILAC affinity pulldown, competition MS ratio; Ahcy; stronger effect = higher value
Adenosylhomocysteinase (Rattus norvegicus), sequence (P10760 whole entry, looked up): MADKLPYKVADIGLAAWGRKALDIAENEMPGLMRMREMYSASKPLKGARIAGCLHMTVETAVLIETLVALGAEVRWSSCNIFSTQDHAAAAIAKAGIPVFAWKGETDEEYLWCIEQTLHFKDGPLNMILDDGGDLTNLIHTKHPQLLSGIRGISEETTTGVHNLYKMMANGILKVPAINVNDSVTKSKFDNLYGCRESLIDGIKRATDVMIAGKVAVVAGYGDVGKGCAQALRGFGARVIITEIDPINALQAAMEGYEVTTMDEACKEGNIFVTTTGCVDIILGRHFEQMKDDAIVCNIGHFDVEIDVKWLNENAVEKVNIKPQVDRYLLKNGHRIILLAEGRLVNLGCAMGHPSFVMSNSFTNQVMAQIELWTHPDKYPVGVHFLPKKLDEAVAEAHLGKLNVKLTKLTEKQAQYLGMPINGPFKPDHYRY

[15] = enrichment significance, stronger effect = lower value

Retsat (UniProt Q8VHE9), sequence (Q8VHE9 whole entry, looked up): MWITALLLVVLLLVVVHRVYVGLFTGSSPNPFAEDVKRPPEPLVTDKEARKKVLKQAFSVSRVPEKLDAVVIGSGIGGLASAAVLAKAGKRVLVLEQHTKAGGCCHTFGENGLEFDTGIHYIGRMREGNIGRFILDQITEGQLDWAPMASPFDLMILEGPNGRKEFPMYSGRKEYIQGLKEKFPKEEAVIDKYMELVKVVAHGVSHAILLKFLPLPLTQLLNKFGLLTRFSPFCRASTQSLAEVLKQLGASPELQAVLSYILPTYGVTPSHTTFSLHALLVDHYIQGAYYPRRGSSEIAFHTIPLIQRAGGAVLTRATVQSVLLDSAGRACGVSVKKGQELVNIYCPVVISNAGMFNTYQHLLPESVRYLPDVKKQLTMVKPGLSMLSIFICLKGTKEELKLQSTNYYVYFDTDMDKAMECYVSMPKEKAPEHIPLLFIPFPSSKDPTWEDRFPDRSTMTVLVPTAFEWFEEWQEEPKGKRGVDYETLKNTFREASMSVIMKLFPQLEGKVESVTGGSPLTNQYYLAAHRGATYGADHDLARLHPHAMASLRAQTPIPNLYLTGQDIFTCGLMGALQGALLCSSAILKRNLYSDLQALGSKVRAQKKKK

log2 SILAC competition ratio (Retsat [1]): 0.58 | log2 SILAC competition ratio (Timm44 [3]): 0.52 | log2 SILAC competition ratio (Cand2 [4]): 0.496 | log2 SILAC competition ratio (Lrpprc [8]): 0.64 | log2 SILAC competition ratio (Xpo1 [9]): 0.56 | log2 SILAC competition ratio [11]: 0.72 | log2 SILAC competition ratio (Mcm6 [12]): 1.63 | log2 SILAC competition ratio [14]: 0.72
Compound: C[C@@H]1CN([C@@H](C)CO)C(=O)c2cccc(NC(=O)Nc3cccc4ccccc34)c2O[C@H]1CN(C)S(=O)(=O)c1ccc2c(c1)OCCO2
p-value (Cand2 [2]): 0.0511 | p-value (Retsat [5]): 0.00538 | p-value (Lrpprc [6]): 0.00102 | p-value (Ahcy): 8.65e-05 | p-value (Usp9x; [15]): 2.07e-09 | log2 SILAC competition ratio (Usp9x; stronger effect = higher value): 0.98 | p-value (Blvrb; [15]): 7.19e-23 | log2 SILAC competition ratio (Blvrb; stronger effect = higher value): 1.52 | p-value (RGD1309903; [15]): 0.000418 | log2 SILAC competition ratio (RGD1309903; stronger effect = higher value): 0.67 | p-value (Xpo1 [7]): 0.0109 | p-value (Ap3b2; [15]): 1.01e-06 | log2 SILAC competition ratio (Ap3b2; stronger effect = higher value): 0.84 | p-value (Tbc1d15; [15]): 6.97e-05 | log2 SILAC competition ratio (Tbc1d15; stronger effect = higher value): 0.72 | p-value (Ipo4; [15]): 0.000164 | log2 SILAC competition ratio (Ipo4; stronger effect = higher value): 0.7 | p-value (Gapdh): 7.85e-05 | p-value (Timm44 [10]): 0.0266 | p-value (Cand1; [15]): 7.49e-06 | log2 SILAC competition ratio (Cand1; stronger effect = higher value): 0.78 | p-value (Ipo9; [15]): 0.00514 | log2 SILAC competition ratio (Ipo9; stronger effect = higher value): 0.58 | p-value (LOC303448; [15]): 3.33e-05 | log2 SILAC competition ratio (LOC303448; stronger effect = higher value): 0.74 | p-value (Mcm6 [13]): 2.29e-26
